Assays:
[1] = tested on: Italian ryegrass; assay: Test A postemergence; format: in vivo, Lolium multiflorum
Excerpt: (§1) Seeds of plant species selected from barnyardgrass (Echinochloa crus-galli), kochia (Kochia scoparia), common ragweed (Ambrosia elation), Italian ryegrass (Lolium multiflorum), crabgrass, large (large crabgrass, Digitaria sanguinalis), foxtail, giant (giant foxtail, Setaria faberii), morningglory (Ipomoea spp.), pigweed (redroot pigweed, Amaranthus retroflexus), velvetleaf (Abutilon theophrasti), wheat (Triticum aestivum), and corn (Zea mays) were planted into a blend of loam soil and sand and treated preemergence with a directed soil spray using test chemicals formulated in a non-phytotoxic solvent mixture which included a surfactant.
(§2) At the same time, plants selected from these crop and weed species and also blackgrass (Alopecurus myosuroides), and galium (catchweed bedstraw, Galium aparine) were planted in pots containing the same blend of loam soil and sand and treated with postemergence applications of test chemicals formulated in the same manner. Plants ranged in height from 2 to 10 cm and were in the one- to two-leaf stage for the postemergence treatment. Treated plants and untreated controls were maintained in a greenhouse for approximately 10 days, after which time all treated plants were compared to untreated controls and visually evaluated for injury. Plant response ratings, summarized in Table A, are based on a 0 to 100 scale where 0 is no effect and 100 is complete control. A dash (-) response means no test result.

[2] = tested on: wheat; assay: Test A postemergence; format: in vivo, Triticum aestivum
Procedure, shortened: (§3)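 Visual injury ratings, 0 = no effect to 100 = complete control, taken about 10 days after treatment against untreated controls. Test chemicals, in a non-phytotoxic surfactant-containing solvent, were sprayed onto soil preemergence or onto one- to two-leaf plants (2–10 cm) postemergence, in loam–sand soil under greenhouse conditions.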

[3] = tested on: blackgrass; assay: Test A postemergence; format: in vivo, Alopecurus myosuroides
Excerpt: as §1, §2

[4] = tested on: corn; assay: Test A postemergence; format: in vivo, Zea mays
Procedure, shortened: as §3

[5] = tested on: common ragweed; assay: Test A postemergence; format: in vivo, Ambrosia elation
Excerpt: as §1, §2

[6] = tested on: barnyardgrass; assay: Test B flood; format: in vivo, Echinochloa crus-galli; conditions: 250 g ai/ha, visual rating on 0 to 100 scale (0 no effect, 100 complete control), 13 to 15 days
Procedure, shortened: (§4)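 Paddy-water application: seedlings at 2-leaf stage, flood depth 3 cm maintained for the test duration. Evaluation after 13–15 days in the greenhouse by eye relative to controls; 0–100 scale.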

[7] = tested on: kochia; assay: Test A postemergence; format: in vivo, Kochia scoparia
Excerpt: as §1, §2

[8] = tested on: ducksalad; assay: Test B flood; format: in vivo, Heteranthera limosa; conditions: 250 g ai/ha, visual rating on 0 to 100 scale (0 no effect, 100 complete control), 13 to 15 days
Procedure, shortened: as §4

[9] = tested on: pigweed; assay: Test A postemergence; format: in vivo, Amaranthus retroflexus
Procedure, shortened: as §3

[10] = tested on: foxtail, giant; assay: Test A postemergence; format: in vivo, Setaria faberii
Procedure, shortened: as §3

[11] = tested on: kochia; assay: Test A preemergence; format: in vivo, Kochia scoparia
Excerpt: as §1, §2

[12] = tested on: pigweed; assay: Test A preemergence; format: in vivo, Amaranthus retroflexus; conditions: preemergence
Procedure, shortened: as §3

[13] = tested on: galium; assay: Test A postemergence; format: in vivo, Galium aparine
Excerpt: as §1, §2

[14] = tested on: foxtail, giant; assay: Test A preemergence; format: in vivo, Setaria faberii; conditions: preemergence
Procedure, shortened: as §3

[15] = tested on: barnyardgrass; assay: Test A preemergence; format: in vivo, Echinochloa crus-galli; conditions: preemergence
Procedure, shortened: as §3

[16] = tested on: common ragweed; assay: Test A preemergence; format: in vivo, Ambrosia elation
Excerpt: as §1, §2

[17] = tested on: Italian ryegrass; assay: Test A preemergence; format: in vivo, Lolium multiflorum
Excerpt: as §1, §2

[18] = tested on: sedge, umbrella; assay: Test B flood; format: in vivo, Cyperus difformis; conditions: 250 g ai/ha, visual rating on 0 to 100 scale (0 no effect, 100 complete control), 13 to 15 days
Procedure, shortened: as §4

[19] = tested on: barnyardgrass; assay: Test A postemergence; format: in vivo, Echinochloa crus-galli
Procedure, shortened: as §3

[20] = tested on: rice; assay: Test B flood; format: in vivo, Oryza sativa; conditions: 250 g ai/ha, visual rating on 0 to 100 scale (0 no effect, 100 complete control), 13 to 15 days
Procedure, shortened: as §4

[21] = tested on: rice; assay: Test C flooded paddy test; format: in vivo, Oryza sativa; conditions: Flood
Procedure, shortened: (§5)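 Ratings were visual and made relative to untreated controls after 13 to 15 greenhouse days.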

[22] = tested on: wheat; assay: Test A preemergence; format: in vivo, Triticum aestivum; conditions: preemergence, 125 g ai/ha, visual injury approx. 10 days after treatment
Procedure, shortened: as §3

[23] = tested on: velvetleaf; assay: Test A preemergence; format: in vivo, Abutilon theophrasti; conditions: preemergence, 125 g ai/ha, visual injury approx. 10 days after treatment
Procedure, shortened: as §3

[24] = tested on: corn; assay: Test A preemergence; format: in vivo, Zea mays; conditions: preemergence
Procedure, shortened: as §3

[25] = tested on: velvetleaf; assay: Test A postemergence; format: in vivo, Abutilon theophrasti; conditions: Postemergence
Procedure, shortened: as §3

[26] = tested on: crabgrass, large; assay: Test A preemergence; format: in vivo, Digitaria sanguinalis; conditions: preemergence
Procedure, shortened: as §3

[27] = tested on: crabgrass, large; assay: Test A postemergence; format: in vivo, Digitaria sanguinalis
Procedure, shortened: as §3

[28] = tested on: ducksalad; assay: Test C flooded paddy test; format: in vivo, Heteranthera limosa; conditions: Flood
Procedure, shortened: as §5

[29] = tested on: sedge, umbrella; assay: Test C flooded paddy test; format: in vivo, Cyperus difformis; conditions: Flood
Procedure, shortened: as §5

[30] = tested on: morningglory; assay: Test A postemergence; format: in vivo, Ipomoea spp.; conditions: Postemergence
Procedure, shortened: as §3

[31] = tested on: morningglory; assay: Test A preemergence; format: in vivo, Ipomoea spp.; conditions: preemergence, 125 g ai/ha, visual injury approx. 10 days after treatment
Procedure, shortened: as §3

[32] = tested on: barnyardgrass; assay: Test C flooded paddy test; format: in vivo, Echinochloa crus-galli; conditions: Flood
Procedure, shortened: as §5

[33] = Postemergence, 500 g ai/ha, 0 to 100 scale (0 no effect, 100 complete control)
[34] = postemergence, 125 g ai/ha, about 10 days, visual rating on 0 to 100 scale (0 no effect, 100 complete control)
[35] = 125 g ai/ha, visual injury, 0 to 100 scale, approx. 10 days
[36] = 500 g ai/ha, visual injury after approx. 10 days, 0 to 100 scale (0 no effect, 100 complete control)
[37] = Postemergence, 125 g ai/ha, 0 to 100 scale, 0 no effect, 100 complete control
[38] = 31 g ai/ha, scale 0 to 100 (0 no effect, 100 complete control)
[39] = 62 g ai/ha, scale 0 to 100 (0 no effect, 100 complete control)
[40] = 125 g ai/ha, scale 0 to 100 (0 no effect, 100 complete control)
[41] = 125 g ai/ha, visual injury approx. 10 days after treatment
[42] = 125 g ai/ha, 0 to 100 scale, 0 no effect, 100 complete control
[43] = 500 g ai/ha, 0 to 100 scale (0 no effect, 100 complete control)

CCc1cc(C(=O)NC2CC2)nn1Cc1cc(C(F)(F)F)no1 [Compound 124]
50: Kochia plant response rating [7, 34]
30: Italian Ryegrass plant response rating [1, 33] | Common Ragweed plant response rating [5, 33] | Plant response rating, Ducksalad [8] | Pigweed plant response rating [9, 34]
100: Pigweed plant response rating [9, 33] | Pigweed plant response rating [12, 36] | Foxtail, Giant plant response rating [14, 36] | Barnyardgrass plant response rating [15, 36]
20: Common Ragweed plant response rating [5, 34] | Kochia plant response rating [11, 35] | Pigweed plant response rating [12, 35] | Foxtail, Giant plant response rating [14, 35] | Italian Ryegrass plant response rating [17, 36] | Plant response rating, Sedge, Umbrella [18] | Plant response rating, Rice [20]
60: Blackgrass plant response rating [3, 33]
10: Italian Ryegrass plant response rating [1, 34] | Blackgrass plant response rating [3, 34] | Corn plant response rating [4, 34] | Plant response rating, Barnyardgrass [6] | Galium plant response rating [13, 34] | Common Ragweed plant response rating [16, 35]
40: Corn plant response rating [4, 33] | Common Ragweed plant response rating [16, 36]
80: Galium plant response rating [13, 33]
90: Kochia plant response rating [7, 33] | Foxtail, Giant plant response rating [10, 33] | Kochia plant response rating [11, 36]
0: Wheat plant response rating [2, 33] | Wheat plant response rating [2, 34] | Foxtail, Giant plant response rating [10, 34] | Barnyardgrass plant response rating [15, 35] | Italian Ryegrass plant response rating [17, 35] | Barnyardgrass plant response rating [19, 34]
70: Barnyardgrass plant response rating [19, 33]

CCc1cc(C(=O)NC)nn1Cc1ccnc(C(F)(F)F)c1 [Compound 204]
90: Pigweed plant response rating [9, 37] | Pigweed plant response rating [9, 33] | Plant response rating, Ducksalad ([28]; 250 g ai/ha, scale 0 to 100) | Morningglory plant response rating [30, 43] | Plant response rating, Sedge, Umbrella [18]
10: Wheat plant response rating [2, 33] | Corn plant response rating [4, 34] | Velvetleaf plant response rating (0 to 100 scale) [23] | Corn plant response rating [24, 36] | Foxtail, Giant plant response rating [10, 34] | Crabgrass, Large plant response rating [27, 34] | Barnyardgrass plant response rating [19, 34]
80: Crabgrass, Large plant response rating [27, 33] | Plant response rating, Sedge, Umbrella [29, 40] | Plant response rating, Sedge, Umbrella ([29]; 250 g ai/ha, scale 0 to 100) | Morningglory plant response rating [30, 42] | Barnyardgrass plant response rating [15, 36]
100: Crabgrass, Large plant response rating (0 to 100 scale) [26, 41] | Crabgrass, Large plant response rating [26, 36] | Pigweed plant response rating (0 to 100 scale) [12, 41] | Foxtail, Giant plant response rating [14, 36]
0: Wheat plant response rating [2, 37] | Plant response rating, Rice [21, 38] | Plant response rating, Rice [21, 39] | Plant response rating, Rice [21, 40] | Plant response rating, Rice ([21]; 250 g ai/ha, scale 0 to 100) | Wheat plant response rating (0 to 100 scale) [22] | Corn plant response rating (0 to 100 scale) [24, 41] | Plant response rating, Barnyardgrass [6] | Plant response rating, Ducksalad [28, 38] | Plant response rating, Ducksalad [28, 39] | Plant response rating, Sedge, Umbrella [29, 38] | Barnyardgrass plant response rating (0 to 100 scale, 0 is no effect, 100 is complete control) [15, 41] | Plant response rating, Barnyardgrass [32, 38] | Plant response rating, Barnyardgrass [32, 39] | Plant response rating, Barnyardgrass [32, 40] | Plant response rating, Barnyardgrass ([32]; 250 g ai/ha, scale 0 to 100) | Plant response rating, Rice [20]
70: Foxtail, Giant plant response rating [10, 33]
95: Plant response rating, Ducksalad [8]
50: Velvetleaf plant response rating [25, 43] | Plant response rating, Ducksalad [28, 40] | Foxtail, Giant plant response rating (0 to 100 scale) [14, 41] | Barnyardgrass plant response rating [19, 33]
60: Plant response rating, Sedge, Umbrella [29, 39]
40: Velvetleaf plant response rating [25, 42]
30: Corn plant response rating [4, 33] | Morningglory plant response rating (0 to 100 scale) [31]
